The molecules below were run against T1, human recombinant mGluR5 receptor (Homo sapiens, UniProt P41594) (assay: mGluR5 in vitro functional assay (aequorin cell line, inhibition of glutamate EC80 response)). Details: not given.
T1 construct: expressed in transfected cells; expression induced with doxycycline
Assay type: cell-based
Procedure: B. mGluR5 In Vitro Functional Assay
The functional assay utilized an aequorin cell line expressing human recombinant mGluR5 receptor, an inducible cell line that expresses the human receptor under the control of a promoter induced by doxycycline.
mGluR5 cells in mid-log phase, grown 18 hours prior to the test in antibiotic-free media supplemented with doxycycline (600 ng/mL), were detached by gentle flushing with PBS-EDTA ([…]). The cells were recovered by centrifugation and resuspended in assay buffer (HBSS, […], 3 ug/mL glutamate-pyruvate transaminase, […] MEM sodium pyruvate, 0.1% BSA protease-free). Cells were incubated at room temperature for at least 4 hours with Coelenterazine h (Molecular Probes). The cell suspension (60 uL) containing the test compound was mixed with a solution of reference agonist (30 uL) at its EC80, following an incubation of 3 min. after the first injection. The resulting emission of light was recorded using a Hamamatsu Functional Drug Screening System 6000 (FDSS 6000). To standardize the emission of recorded light (determination of the “100% signal’) across plates and across different experiments, some of the wells contained 100 uM digitonin or a saturating concentration (20 mM) of ATP. Plates also contained the reference agonist (glutamate) at a concentration equivalent to the EC80 obtained during assay validation. Percentages of inhibition were calculated on the basis of the activation induced by the reference agonist at a concentration equal to the EC80. Dose-response data were analyzed with XLFit (IDBS) software using nonlinear regression applied to a sigmoidal dose-response model.

T1 sequence (P41594 21-1212): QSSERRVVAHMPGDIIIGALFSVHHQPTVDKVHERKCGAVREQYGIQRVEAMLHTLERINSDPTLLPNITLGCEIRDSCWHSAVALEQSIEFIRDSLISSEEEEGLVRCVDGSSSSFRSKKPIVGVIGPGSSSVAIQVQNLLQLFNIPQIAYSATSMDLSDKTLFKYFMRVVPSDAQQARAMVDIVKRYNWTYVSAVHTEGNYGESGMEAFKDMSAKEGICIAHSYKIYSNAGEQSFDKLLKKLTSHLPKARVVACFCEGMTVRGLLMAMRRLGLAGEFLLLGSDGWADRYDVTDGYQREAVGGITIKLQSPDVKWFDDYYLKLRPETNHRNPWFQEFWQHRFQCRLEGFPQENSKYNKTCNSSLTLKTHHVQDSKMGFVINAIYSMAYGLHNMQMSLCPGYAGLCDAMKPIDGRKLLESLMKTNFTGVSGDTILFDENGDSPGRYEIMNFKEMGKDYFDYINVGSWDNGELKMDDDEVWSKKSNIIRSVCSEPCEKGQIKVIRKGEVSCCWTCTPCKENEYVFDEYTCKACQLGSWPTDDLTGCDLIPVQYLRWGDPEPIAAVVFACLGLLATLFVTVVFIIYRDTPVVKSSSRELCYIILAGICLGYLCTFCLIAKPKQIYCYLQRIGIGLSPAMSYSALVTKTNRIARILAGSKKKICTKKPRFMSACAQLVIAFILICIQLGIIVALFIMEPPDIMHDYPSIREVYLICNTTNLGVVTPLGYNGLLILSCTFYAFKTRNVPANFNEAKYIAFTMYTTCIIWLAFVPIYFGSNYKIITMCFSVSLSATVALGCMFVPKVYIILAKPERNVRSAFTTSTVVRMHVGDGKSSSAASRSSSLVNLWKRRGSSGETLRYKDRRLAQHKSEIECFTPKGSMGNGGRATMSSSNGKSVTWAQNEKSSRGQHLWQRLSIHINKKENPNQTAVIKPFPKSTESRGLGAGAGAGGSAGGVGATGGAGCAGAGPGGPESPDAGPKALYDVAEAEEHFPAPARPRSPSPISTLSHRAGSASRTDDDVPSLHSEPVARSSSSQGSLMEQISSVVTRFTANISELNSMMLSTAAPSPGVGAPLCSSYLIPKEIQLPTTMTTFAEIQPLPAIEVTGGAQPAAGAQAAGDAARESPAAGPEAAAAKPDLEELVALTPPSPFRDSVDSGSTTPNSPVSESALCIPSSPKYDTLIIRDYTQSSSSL

Row | SMILES | IC50 [µM]
1 | N#Cc1ccc(N2CCc3oc(-c4ccccn4)nc3C2)cc1F [Compound 36, 2-Fluoro-4-(2-(pyridin-2-yl)-6,7-dihydrooxazolo[4,5-c]pyridin-5(4H)-yl)benzonitrile] | > 10

Same assay, conditions: Table 1; aequorin cell line expressing human mGluR5, reference agonist glutamate at EC80; obtained in duplicate; read-out: IC50

Row | SMILES | IC50 [µM]
2 | N#Cc1cc(F)cc(CN2CCc3oc(-c4ccccn4)nc3C2)c1 [Compound 35, 3-Fluoro-5-((2-(pyridin-2-yl)-6,7-dihydrooxazolo-[4,5-c]pyridin-5(4H)-yl)methyl)benzonitrile] | < 10
3 | N#Cc1cccnc1N1CCc2oc(-c3ccccc3)nc2C1 [Compound 37, 2-(2-Phenyl-6,7-dihydrooxazolo[4,5-c]pyridin-5(4H)-yl)nicotinonitrile] | < 10
4 | c1ccc(-c2nc3c(o2)CCN(c2ccccn2)C3)cc1 [Compound 38, 2-Phenyl-5-(pyridin-2-yl)-4,5,6,7-tetrahydrooxazolo-[4,5-c]pyridine] | < 10
5 | N#Cc1cccnc1N1CCc2oc(-c3cccc(Cl)c3)nc2C1 [Compound 39, 2-(2-(3-Chlorophenyl)-6,7-dihydrooxazolo[4,5-c]pyridin-5(4H)-yl)nicotinonitrile] | < 1
6 | Clc1cccc(-c2nc3c(o2)CCN(c2ccccn2)C3)c1 [Compound 40, 2-(3-Chlorophenyl)-5-(pyridin-2-yl)-4,5,6,7-tetrahydrooxazolo[4,5-c]pyridine] | < 1
7 | Clc1cccc(-c2nc3c(o2)CCN(c2cnccn2)C3)c1 [Compound 41, 2-(3-Chlorophenyl)-5-(pyrazin-2-yl)-4,5,6,7-tetrahydrooxazolo[4,5-c]pyridine] | < 1
8 | COc1ccc(-c2nc3c(o2)CCN(c2cnccn2)C3)cc1 [Compound 42, 2-(4-Methoxyphenyl)-5-(pyrazin-2-yl)-4,5,6,7-tetrahydrooxazolo[4,5-c]pyridine] | > 10
9 | COc1ccc(-c2nc3c(o2)CCN(c2ncccc2C#N)C3)cc1 [Compound 43, 2-(2-(4-Methoxyphenyl)-6,7-dihydrooxazolo[4,5-c]pyridin-5(4H)-yl)nicotinonitrile] | > 10
10 | N#Cc1cccnc1N1CCc2oc(-c3ccc(C(F)(F)F)cc3)nc2C1 [Compound 44, 2-(2-(4-(Trifluoromethyl)phenyl)-6,7-dihydrooxazolo[4,5-c]pyridin-5(4H)-yl)nicotinonitrile] | > 10
11 | FC(F)(F)c1ccc(-c2nc3c(o2)CCN(c2cnccn2)C3)cc1 [Compound 45, 5-(Pyrazin-2-yl)-2-(4-(trifluoromethyl)phenyl)-4,5,6,7-tetrahydrooxazolo[4,5-c]pyridine] | > 10
12 | N#Cc1cccnc1N1CCc2oc(-c3ccc(F)cc3)nc2C1 [Compound 46, 2-(2-(4-Fluorophenyl)-6,7-dihydrooxazolo[4,5-c]pyridin-5(4H)-yl)nicotinonitrile] | > 10
13 | Fc1ccc(-c2nc3c(o2)CCN(c2cnccn2)C3)cc1 [Compound 47, 2-(4-Fluorophenyl)-5-(pyrazin-2-yl)-4,5,6,7-tetrahydrooxazolo[4,5-c]pyridine] | < 10
14 | Fc1ccc(-c2nc3c(o2)CCN(c2ccccn2)C3)cc1 [Compound 48, 2-(4-Fluorophenyl)-5-(pyridin-2-yl)-4,5,6,7-tetrahydrooxazolo[4,5-c]pyridine] | < 10
15 | c1ccc(-c2nc3c(o2)CCN(c2cnccn2)C3)cc1 [Compound 49, 2-Phenyl-5-(pyrazin-2-yl)-4,5,6,7-tetrahydrooxazolo[4,5-c]pyridine] | < 10
16 | Clc1cccc(-c2nc3c(o2)CCN(Cc2ccccn2)C3)c1 [Compound 50, 2-(3-Chlorophenyl)-5-(pyridin-2-ylmethyl)-4,5,6,7-tetrahydrooxazolo[4,5-c]pyridine] | < 10
17 | Clc1cccc(-c2nc3c(o2)CCN(c2cccnc2)C3)c1 [Compound 51, 2-(3-Chlorophenyl)-5-(pyridin-3-yl)-4,5,6,7-tetrahydrooxazolo[4,5-c]pyridine] | < 1
18 | N#Cc1nccnc1N1CCc2oc(-c3ccccc3)nc2C1 [Compound 52, 3-(2-Phenyl-6,7-dihydrooxazolo[4,5-c]pyridin-5(4H)-yl)pyrazine-2-carbonitrile] | < 10
19 | N#Cc1nccnc1N1CCc2oc(-c3cccc(Cl)c3)nc2C1 [Compound 53, 3-(2-(3-Chlorophenyl)-6,7-dihydrooxazolo[4,5-c]pyridin-5(4H)-yl)pyrazine-2-carbonitrile] | < 1
20 | O=C(c1ccc(F)cc1)N1CCc2oc(-c3ccc(F)cc3)nc2C1 [Compound 54, (4-Fluorophenyl)(2-(4-fluorophenyl)-6,7-dihydrooxazolo[4,5-c]pyridin-5(4H)-yl)methanone] | < 10
21 | c1ccc(-c2nc3c(o2)CCN(c2nccs2)C3)nc1 [Compound 55, 2-(Pyridin-2-yl)-5-(thiazol-2-yl)-4,5,6,7-tetrahydrooxazolo[4,5-c]pyridine] | < 1

Row | SMILES | IC50 [µM]
22 | COc1cc(F)cc(N2CCc3oc(-c4ccccn4)nc3C2)c1 [Compound 56, 5-(3-Fluoro-5-methoxyphenyl)-2-(pyridin-2-yl)-4,5,6,7-tetrahydrooxazolo[4,5-c]pyridine] | < 1
23 | N#Cc1cc(N2CCc3oc(-c4ccccn4)nc3C2)ccc1F [Compound 57, 2-Fluoro-5-(2-(pyridin-2-yl)-6,7-dihydrooxazolo[4,5-c]pyridin-5(4H)-yl)benzonitrile] | < 10
24 | Cc1cccc(-c2nc3c(o2)CN(c2ccccn2)CC3)c1 [Compound 58, 5-(Pyridin-2-yl)-2-m-tolyl-4,5,6,7-tetrahydrooxazolo[5,4-c]pyridine] | < 1
25 | Cc1cccc(-c2nc3c(o2)CN(c2ncccc2C#N)CC3)c1 [Compound 59, 2-(2-m-Tolyl-6,7-dihydrooxazolo[5,4-c]pyridin-5(4H)-yl)nicotinonitrile] | < 1
26 | Cc1cccc(-c2nc3c(o2)CCN(c2ccccn2)C3)c1 [Compound 60, 5-(Pyridin-2-yl)-2-m-tolyl-4,5,6,7-tetrahydrooxazolo-[4,5-c]pyridine] | < 1
27 | Cc1cccc(-c2nc3c(o2)CCN(c2ncccc2C#N)C3)c1 [Compound 61, 2-(2-m-Tolyl-6,7-dihydrooxazolo[4,5-c]pyridin-5(4H)-yl)nicotinonitrile] | < 1
28 | N#Cc1cccc(-c2nc3c(o2)CCN(c2ccccn2)C3)c1 [Compound 62, 3-(5-(Pyridin-2-yl)-4,5,6,7-tetrahydrooxazolo[4,5-c]pyridin-2-yl)benzonitrile] | > 10
29 | N#Cc1cccc(-c2nc3c(o2)CCN(c2ncccc2C#N)C3)c1 [Compound 63, 2-(2-(3-Cyanophenyl)-6,7-dihydrooxazolo[4,5-c]pyridin-5(4H)-yl)nicotinonitrile] | < 10
30 | N#Cc1cccc(-c2nc3c(o2)CCN(c2cccc(C#N)c2)C3)c1 [Compound 64, 3,3′-(6,7-Dihydrooxazolo[4,5-c]pyridine-2,5(4H)-diyl)dibenzonitrile] | < 1
31 | N#Cc1cccc(-c2nc3c(o2)CN(c2ccccn2)CC3)c1 [Compound 65, 3-(5-(Pyridin-2-yl)-4,5,6,7-tetrahydrooxazolo[5,4-c]pyridin-2-yl)benzonitrile] | > 10
32 | N#Cc1cccc(-c2nc3c(o2)CN(c2ncccc2C#N)CC3)c1 [Compound 66, 2-(2-(3-Cyanophenyl)-6,7-dihydrooxazolo[5,4-c]pyridin-5(4H)-yl)nicotinonitrile] | < 10
33 | N#Cc1cccc(-c2nc3c(o2)CN(c2cccc(C#N)c2)CC3)c1 [Compound 67, 3,3′-(6,7-Dihydrooxazolo[5,4-c]pyridine-2,5(4H)-diyl)dibenzonitrile] | < 1
34 | Clc1ccccc1-c1nc2c(o1)CN(c1ccccn1)CC2 [Compound 68, 2-(2-Chlorophenyl)-5-(pyridin-2-yl)-4,5,6,7-tetrahydrooxazolo[5,4-c]pyridine] | < 10
35 | N#Cc1cccnc1N1CCc2nc(-c3ccccc3Cl)oc2C1 [Compound 69, 2-(2-(2-Chlorophenyl)-6,7-dihydrooxazolo[5,4-c]pyridin-5(4H)-yl)nicotinonitrile] | < 10
36 | Clc1ccc(-c2nc3c(o2)CN(c2ccccn2)CC3)cc1 [Compound 70, 2-(4-Chlorophenyl)-5-(pyridin-2-yl)-4,5,6,7-tetrahydrooxazolo[5,4-c]pyridine] | < 1
37 | COc1cccc(-c2nc3c(o2)CN(c2ccccn2)CC3)c1 [Compound 71, 2-(3-Methoxyphenyl)-5-(pyridin-2-yl)-4,5,6,7-tetrahydrooxazolo[5,4-c]pyridine] | < 10
38 | COc1cccc(-c2nc3c(o2)CN(c2ncccc2C#N)CC3)c1 [Compound 72, 2-(2-(3-Methoxyphenyl)-6,7-dihydrooxazolo[5,4-c]pyridin-5(4H)-yl)nicotinonitrile] | < 1
39 | COc1cccc(-c2nc3c(o2)CCN(c2ncccc2C#N)C3)c1 [Compound 73, 2-(2-(3-Methoxyphenyl)-6,7-dihydrooxazolo[4,5-c]pyridin-5(4H)-yl)nicotinonitrile] | > 10
40 | Cc1ccc(-c2nc3c(o2)CN(c2cccc(C#N)c2)CC3)nc1 [Compound 74, 3-(2-(5-Methylpyridin-2-yl)-6,7-dihydrooxazolo[5,4-c]pyridin-5(4H)-yl)benzonitrile] | < 10
